Here are results for 1 compound from paper PMC6934184, “Selective DNA-PKcs inhibition extends the therapeutic index of localized radiotherapy and chemotherapy” (The Journal of Clinical Investigation, 2019).

For this assay, the target named is T1, STK22B (TSSK2) (Homo sapiens, UniProt Q96PF2).
T1 construct: purchased Thermo Fisher Scientific (Life Technologies) SelectScreen
The experiment in a line: SelectScreen Z'LYTE. It is filed as biochemical. A digest of the protocol: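 SelectScreen broad panel; activity (Z'LYTE, Adapta) plus binding formats. ATP: Km app for CSF1R Z'LYTE; 10 for CAMK1 Adapta. Readout = % per kinase.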

T1 sequence (Q96PF2 whole entry): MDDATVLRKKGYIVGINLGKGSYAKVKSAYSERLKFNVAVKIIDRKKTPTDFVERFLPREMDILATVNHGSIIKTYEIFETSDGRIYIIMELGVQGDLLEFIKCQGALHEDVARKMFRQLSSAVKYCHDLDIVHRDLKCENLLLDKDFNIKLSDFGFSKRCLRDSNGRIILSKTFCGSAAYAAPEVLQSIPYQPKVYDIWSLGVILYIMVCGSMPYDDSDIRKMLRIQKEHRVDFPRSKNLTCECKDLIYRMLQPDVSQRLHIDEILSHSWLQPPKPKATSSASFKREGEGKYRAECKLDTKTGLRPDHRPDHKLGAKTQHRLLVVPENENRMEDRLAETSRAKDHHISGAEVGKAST

In the case of `CN(C(=O)CN1CCOCC1)c1ccc2sc3c(-c4cccc5c(=O)cc(N6CC7CCC(C6)O7)oc45)cccc3c2c1` [NU5455], the inhibition at 1 µM came out at 2.8%.
